Experimental data published in PMC8151276, “An Integrated Approach toward NanoBRET Tracers for Analysis of GPCR Ligand Engagement” (Molecules, 2021).

Biological target: T1, CCR10 (Homo sapiens, UniProt P46092)
T1 construct: purchased Promega (in-house HiBiT-GPCR construct library, NanoBRET)
T1 sequence (P46092 1-362): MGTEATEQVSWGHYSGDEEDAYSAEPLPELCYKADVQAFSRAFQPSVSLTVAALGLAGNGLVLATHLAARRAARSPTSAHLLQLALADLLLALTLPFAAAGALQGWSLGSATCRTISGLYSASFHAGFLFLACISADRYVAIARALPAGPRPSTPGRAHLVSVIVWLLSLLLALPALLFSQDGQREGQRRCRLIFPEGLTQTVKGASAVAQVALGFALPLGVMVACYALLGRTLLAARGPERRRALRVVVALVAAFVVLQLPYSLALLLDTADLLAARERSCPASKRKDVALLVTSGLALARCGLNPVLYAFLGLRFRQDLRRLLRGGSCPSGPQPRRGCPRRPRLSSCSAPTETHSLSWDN
Test: NanoBRET screen HiBiT-CCR10 in HEK293
Format: binding
Protocol: Each tracer candidate was screened across the entire library of HiBiT-GPCR constructs using NanoBRET as the detection modality. As depicted in Figure 4A, the specificity of interactions was evaluated through decrease in BRET due to competitive displacement of a bound tracer by excess parental compound. Each tracer was analyzed for binding to each HiBiT-GPCR fusion in the absence and in the presence of competing parental compound. Briefly, HEK293 cells were transfected with HiBiT-GPCR constructs diluted into promoterless DNA to reduce expression and maximize translocation to the cell surface. Each tracer candidate was then screened at concentrations of 1 μM and 0.1 μM across cells expressing these fusions. Cells were treated for 1.5 h with tracer either alone or in the presence of 20 μM competing parental compound (i.e., control). BRET was measured upon addition of purified LgBiT and subsequent complementation with HiBiT genetically fused to a GPCR. The specificity of interactions was assessed through a decrease in BRET signal due to competitive displacement of the bound tracer. To further gauge the robustness of these interactions, the fold response over the control (i.e., BRETtracer/BRETcontrol) was calculated. We chose a 1.5-fold response, which translates to ≥7-fold signal over noise as the minimal threshold required to score an interaction as positive.
HiBiT-GPCR DNA constructs were diluted in 10 mM Tris pH 8 to a final concentration of 0.01 μg/μL, arrayed in 96-well plates and stored at −20 °C. For transfection, HEK293 cells were suspended in Opti-MEM (without phenol red) supplemented with 2% fetal bovine serum (Seradigm) and 100 units/mL penicillin–streptomycin (Gibco) at a final concentration of 220,000 cells/mL and dispensed into white 96-well plates at 90 μL/well. Subsequent transfections and screens were carried using an Agilent Bravo Automated Liquid Handling Platform. First, the 96-well HiBiT DNA arrays were diluted 25-fold in Opti-MEM (without serum or phenol red) to a final concentration of 0.0004 μg/μL and 20 μL of the diluted DNAs were transferred into new 96-well plates. Next, promoterless carrier DNA (1 μg/μL) was diluted 25-fold (0.04 μg/μL) and then dispensed into the diluted arrays at 20 μL/well. Following brief mixing, Viafect transfection reagent (Promega) diluted 16-fold into Opti-MEM was dispensed into the plates at 40 μL/well. After mixing by pipetting, plates were incubated for 10 min on the pipetting station deck. The DNA-transfection reagent complexes were then added to plates containing cells. To facilitate the screen, 10 μL of DNA-transfection reagent complexes were added in duplicates to the top 4 and bottom 4 rows, resulting in two identical 48-well arrays per plate. Plates with transfected cells were incubated for 18–20 h at 37 °C/5% CO2. A screen of each tracer across the entire library using two different concentrations requires duplicate plates of transfected cells. Depending on the number of tracers being screened, transfections can be scaled up using the same ratios. The next day, for each tracer, four 20× screening solutions in tracer dilution buffer (Promega) were prepared: two duplicates at final concentration of 20 μM and two duplicates at a final concentration of 2 μM. […] The four resulting solutions were diluted 4-fold in Opti-MEM without serum or phenol red to generate 5× solutions (5 µM and 0.5 µM tracer +/− 100 μM competing compound). To screen the library, a BioTek MultiFlo FX liquid dispenser was used to dispense 22.5 µL of tracer solution to the top 4 rows and 22.5 µL tracer + competing compound solution to the 4 bottom rows. Plates were briefly mixed on an orbital shaker and incubated for 1.5 h at room temperature. […] Plates were briefly mixed on an orbital shaker and incubated for 15 min to allow complementation.

SMILES	NanoBRET Fold Response (CCR10, tracer 0.1μM)	NanoBRET Fold Response (CCR10, tracer 1μM)	also measured
CCOC(=O)c1cc(C#N)c(N2CCC(C(=O)NS(=O)(=O)Cc3ccccc3/C=C/C(=O)NCCNC(=O)CCc3ccc4n3[B-](F)(F)[N+]3=C(c5ccc[nH]5)C=CC3=C4)CC2)nc1C [AZD1283-1-NB590]	–	–	NanoBRET Fold Response (CCR10, 0.1μM): 1.00; NanoBRET Fold Response (CCR10, 1μM): 1.07
N#CN=C(NCCCOc1cccc(CN2CCCCC2)c1)NCCNC(=O)CCOCCOCCOCCOCCNC(=O)CCc1ccc2n1[B-](F)(F)[N+]1=C(c3ccc[nH]3)C=CC1=C2 [Aminopotentidine-2-NB590]	1.00	1.01	–
CN(C)CCC=C1c2ccccc2CCc2ccc(C(=O)NCCNC(=O)CCOCCOCCOCCOCCNC(=O)CCc3ccc4n3[B-](F)(F)[N+]3=C(c5ccc[nH]5)C=CC3=C4)cc21 [Amitriptyline-a-2-NB590]	–	–	NanoBRET Fold Response (tracer at 0.1μM): 1.02; NanoBRET Fold Response (tracer at 1μM): 1.00
CN(C)CCC=C1c2ccccc2CCc2ccc(C(=O)NCCNC(=O)CCOCCOCCOCCOCCNC(=O)CCc3ccc4n3[B-](F)(F)[N+]3=C(c5ccc[nH]5)C=CC3=C4)cc21 [Amitriptyline-b-2-NB590]	–	–	NanoBRET Fold Response (tracer at 0.1μM, listed as amitriptyline-b-2-NB590): 1.05; NanoBRET Fold Response (tracer at 1μM, listed as amitriptyline-b-2-NB590): 1.19
CN(CCC=C1c2ccccc2CCc2ccccc21)C(=O)CCOCCOCCOCCOCCNC(=O)CCc1ccc2n1[B-](F)(F)[N+]1=C(c3ccc[nH]3)C=CC1=C2 [Amitriptyline-e-2-NB590]	–	–	NanoBRET Fold Response (tracer at 1μM): 1.04
COc1ccc2c(n1)c(CCNC(C)=O)cn2CCNC(=O)CCc1ccc2n1[B-](F)(F)[N+]1=C(c3ccc[nH]3)C=CC1=C2 [Azamelatonin-1-NB590]	–	–	NanoBRET Fold Response (0.1μM tracer): 0.84; NanoBRET Fold Response (1μM tracer): 0.85
COc1ccc2[nH]c(-c3ccc(CNC(=O)CCOCCOCCOCCOCCNC(=O)CCc4ccc5n4[B-](F)(F)[N+]4=C(c6ccc[nH]6)C=CC4=C5)cc3)c(CCNC(C)=O)c2n1 [AzomelatoninICO9-2-NB590]	–	–	NanoBRET Fold Response (0.1μM tracer): 0.87; NanoBRET Fold Response (1μM tracer): 1.18
O=C(CCOCCOCCOCCOCCNC(=O)CCc1ccc2n1[B-](F)(F)[N+]1=C(c3ccc[nH]3)C=CC1=C2)NCCCN1CCN(C2=Nc3cc(Cl)ccc3Nc3ccccc32)CC1 [Clozapine-a-2-NB590]	–	–	NanoBRET Fold Response (CCR10, 0.1μM tracer): 1.04; NanoBRET Fold Response (CCR10, 1μM tracer): 1.01
CN1CCN(C2=Nc3cc(Cl)ccc3Nc3ccc(CNC(=O)CCOCCOCCOCCOCCNC(=O)CCc4ccc5n4[B-](F)(F)[N+]4=C(c6ccc[nH]6)C=CC4=C5)cc32)CC1 [Clozapine-b-2-NB590]	–	–	NanoBRET Fold Response (CCR10, 0.1μM tracer): 1.01; NanoBRET Fold Response (CCR10, 1μM tracer): 1.15
CN1CCN(C2=Nc3cc(Cl)ccc3N(CC(=O)NCCOCCOCCOCCOCCNC(=O)CCc3ccc4n3[B-](F)(F)[N+]3=C(c5ccc[nH]5)C=CC3=C4)c3ccccc32)CC1 [Clozapine-c-2-NB590]	–	–	NanoBRET Fold Response (CCR10, 0.1μM tracer): 1.00; NanoBRET Fold Response (CCR10, 1μM tracer): 0.91
O=C(CCOCCOCCOCCOCCNC(=O)CCc1ccc2n1[B-](F)(F)[N+]1=C(c3ccc[nH]3)C=CC1=C2)NCCCN1CCN(C2=Nc3ccccc3Oc3ccc(Cl)cc32)CC1 [Loxapine-a-2-NB590]	1.04	1.04	–
COc1ccccc1N1CCN(CCCCN2C(=O)c3ccc(CNC(=O)CCOCCOCCOCCOCCNC(=O)CCc4ccc5n4[B-](F)(F)[N+]4=C(c6ccc[nH]6)C=CC4=C5)cc3C2=O)CC1 [NAN-190-2-NB590]	0.97	1.00	–
COc1ccccc1N1CCN(CCCCN2C(=O)c3ccc(CNC(=O)CCOCCNC(=O)c4ccc(CNC(=O)CCc5ccc6n5[B-](F)(F)[N+]5=C(c7ccc[nH]7)C=CC5=C6)cc4)cc3C2=O)CC1 [NAN-190-3-NB590]	1.04	1.27	–
O=C(CCc1ccc2n1[B-](F)(F)[N+]1=C(c3ccc[nH]3)C=CC1=C2)NCc1ccc(C(=O)NCCOCCC(=O)N[C@@H]2CC[C@@]3(O)[C@H]4Cc5ccc(O)c6c5[C@@]3(CCN4CC3CC3)[C@H]2O6)cc1 [Naltrexone-3-NB590]	1.02	0.92	–
Cc1cc2c(s1)Nc1ccccc1N=C2N1CCN(CCCNC(=O)CCOCCOCCOCCOCCNC(=O)CCc2ccc3n2[B-](F)(F)[N+]2=C(c4ccc[nH]4)C=CC2=C3)CC1 [Olanzapine-a-2-NB590]	1.01	0.95	–
O=C(CCc1ccc2n1[B-](F)(F)[N+]1=C(c3ccc[nH]3)C=CC1=C2)NCc1ccc(C(=O)NCCOCCOCCNCC(O)COc2cccc3ccccc23)cc1 (stereo not shown) [Propranolol-3-NB590]	–	–	NanoBRET Fold Response (CCR10, 0.1μM): 1.04; NanoBRET Fold Response (CCR10, 1μM): 1.00
O=C(CCc1ccc2n1[B-](F)(F)[N+]1=C(c3ccc[nH]3)C=CC1=C2)NCCOCCOCCNC(=O)OCCOCCN1CCN(C2=Nc3ccccc3Sc3ccccc32)CC1 [Quetiapine-a-2-NB590]	1.01	0.94	–
Cc1nc2n(c(=O)c1CCN1CCC(c3noc4cc(F)ccc34)CC1)CCCC2OC(=O)NCCOCCOCCOCCOCCNC(=O)CCc1ccc2n1[B-](F)(F)[N+]1=C(c3ccc[nH]3)C=CC1=C2 (stereo not shown) [Risperidone-2-NB590]	–	0.95	–
CC(C)N(CC[C@H](c1ccccc1)c1cc(CCNC(=O)CCOCCOCCOCCOCCNC(=O)CCc2ccc3n2[B-](F)(F)[N+]2=C(c4ccc[nH]4)C=CC2=C3)ccc1O)C(C)C [Tolterodine-2-NB590]	1.17	0.97	–
CC(C)N(CC[C@H](c1ccccc1)c1cc(CCNC(=O)c2ccc(CNC(=O)CCc3ccc4n3[B-](F)(F)[N+]3=C(c5ccc[nH]5)C=CC3=C4)cc2)ccc1O)C(C)C [Tolterodine-BZ-NB590]	1.00	1.08	–
CCCn1c(=O)c2[nH]c(-c3ccc(OCC(=O)NCCNC(=O)CCOCCNC(=O)c4ccc(CNC(=O)CCc5ccc6n5[B-](F)(F)[N+]5=C(c7ccc[nH]7)C=CC5=C6)cc4)cc3)nc2n(CCC)c1=O [XAC-3-NB590]	0.92	0.78	–
